Laboratory results as given in the kinase profiling compilation of Christmann-Franck et al. (2016).

How the values were obtained:
MAP2K6 (human) = MAP2K6 (human) (UniProt P52564); assay: ELISA
MAP2K5 (human) = MAP2K5 (human) (UniProt Q13163); assay: ELISA
MAP2K4 (human) = MAP2K4 (human) (UniProt P45985); assay: ELISA
PLK4 (human) = PLK4 (human) (UniProt O00444); assay: ELISA
MAP3K8 (human) = MAP3K8 (human) (UniProt P41279); assay: ELISA
BMPR1A (human) = BMPR1A (human) (UniProt P36894); assay: ELISA
MOS (human) = MOS (human) (UniProt P00540); assay: ELISA
WEE1 (human) = WEE1 (human) (UniProt P30291); assay: ELISA
MAP3K5 (human) = MAP3K5 (human) (UniProt Q99683); assay: ELISA
MAP3K10 (human) = MAP3K10 (human) (UniProt Q02779); assay: ELISA
MAP2K2 (human) = MAP2K2 (human) (UniProt P36507); assay: ELISA
TTK (human) = TTK (human) (UniProt P33981); assay: ELISA
MAP3K1 (human) = MAP3K1 (human) (UniProt Q13233); assay: ELISA
MAP2K1 (human) = MAP2K1 (human) (UniProt Q02750); assay: ELISA
MAP2K7 (human) = MAP2K7 (human) (UniProt O14733); assay: ELISA
MAP3K12 (human) = MAP3K12 (human) (UniProt Q12852); assay: ELISA
STK11 (human) = STK11 (human) (UniProt Q15831); assay: ELISA
MAP3K2 (human) = MAP3K2 (human) (UniProt Q9Y2U5); assay: ELISA
MAP3K3 (human) = MAP3K3 (human) (UniProt Q99759); assay: ELISA
MAP3K9 (human) = MAP3K9 (human) (UniProt P80192); assay: ELISA
MAP2K3 (human) = MAP2K3 (human) (UniProt P46734); assay: ELISA
RAF1 (human) = RAF1 (human) (UniProt P04049); assay: ELISA
MAP3K4 (human) = MAP3K4 (human) (UniProt Q9Y6R4); assay: ELISA
MAPK12 (human) = MAPK12 (human) (UniProt P53778); assay: Caliper, Mobility shift assay off-chip
PRKACA (human) = PRKACA (human) (UniProt P17612); assay: Caliper, Mobility shift assay off-chip
MST4 (human) = MST4 (human) (UniProt Q9P289); assay: Caliper, Mobility shift assay off-chip
CSNK1G1 (human) = CSNK1G1 (human) (UniProt Q9HCP0); assay: Caliper, Mobility shift assay off-chip
DYRK3 (human) = DYRK3 (human) (UniProt O43781); assay: Caliper, Mobility shift assay off-chip
SLK (human) = SLK (human) (UniProt Q9H2G2); assay: Caliper, Mobility shift assay off-chip
IRAK4 (human) = IRAK4 (human) (UniProt Q9NWZ3); assay: Caliper, Mobility shift assay off-chip
CDC42BPA (human) = CDC42BPA (human) (UniProt Q5VT25); assay: Caliper, Mobility shift assay off-chip
NTRK2 (human) = NTRK2 (human) (UniProt Q16620); assay: Caliper, Mobility shift assay off-chip
MAP3K11 (human) = MAP3K11 (human) (UniProt Q16584); assay: ELISA
LIMK1 (human) = LIMK1 (human) (UniProt P53667); assay: ELISA
BRAF (human) = BRAF (human) (UniProt P15056); assay: ELISA

MAP2K2 (human), sequence (P36507 whole entry, looked up): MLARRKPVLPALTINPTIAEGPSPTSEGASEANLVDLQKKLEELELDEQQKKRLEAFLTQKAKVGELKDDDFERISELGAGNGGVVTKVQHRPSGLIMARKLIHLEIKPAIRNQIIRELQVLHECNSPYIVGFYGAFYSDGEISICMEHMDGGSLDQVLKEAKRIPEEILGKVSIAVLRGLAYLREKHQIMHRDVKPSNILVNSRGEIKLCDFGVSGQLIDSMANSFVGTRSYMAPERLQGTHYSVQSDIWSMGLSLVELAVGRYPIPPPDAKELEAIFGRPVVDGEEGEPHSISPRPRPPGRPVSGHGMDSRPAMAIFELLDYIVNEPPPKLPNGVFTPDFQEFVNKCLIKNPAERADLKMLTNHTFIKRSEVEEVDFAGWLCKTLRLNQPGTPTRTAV
MAP3K3 (human), sequence (Q99759 whole entry, looked up): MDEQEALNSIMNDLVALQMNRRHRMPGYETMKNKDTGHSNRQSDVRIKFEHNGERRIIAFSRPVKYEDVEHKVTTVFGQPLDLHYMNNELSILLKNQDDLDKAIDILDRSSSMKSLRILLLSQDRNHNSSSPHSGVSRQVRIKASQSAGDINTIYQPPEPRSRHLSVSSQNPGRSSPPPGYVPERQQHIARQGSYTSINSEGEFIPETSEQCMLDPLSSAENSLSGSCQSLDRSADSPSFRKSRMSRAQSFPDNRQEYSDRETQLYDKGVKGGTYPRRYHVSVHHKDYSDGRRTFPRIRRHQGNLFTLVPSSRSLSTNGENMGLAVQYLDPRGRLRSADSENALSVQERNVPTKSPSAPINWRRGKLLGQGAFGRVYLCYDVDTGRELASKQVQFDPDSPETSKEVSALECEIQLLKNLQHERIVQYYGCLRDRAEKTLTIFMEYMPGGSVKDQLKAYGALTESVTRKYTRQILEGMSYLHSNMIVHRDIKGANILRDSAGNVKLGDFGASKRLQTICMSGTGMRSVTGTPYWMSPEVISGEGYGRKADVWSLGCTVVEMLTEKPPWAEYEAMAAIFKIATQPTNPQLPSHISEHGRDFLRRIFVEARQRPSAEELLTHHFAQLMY
MAP2K4 (human), sequence (P45985 whole entry, looked up): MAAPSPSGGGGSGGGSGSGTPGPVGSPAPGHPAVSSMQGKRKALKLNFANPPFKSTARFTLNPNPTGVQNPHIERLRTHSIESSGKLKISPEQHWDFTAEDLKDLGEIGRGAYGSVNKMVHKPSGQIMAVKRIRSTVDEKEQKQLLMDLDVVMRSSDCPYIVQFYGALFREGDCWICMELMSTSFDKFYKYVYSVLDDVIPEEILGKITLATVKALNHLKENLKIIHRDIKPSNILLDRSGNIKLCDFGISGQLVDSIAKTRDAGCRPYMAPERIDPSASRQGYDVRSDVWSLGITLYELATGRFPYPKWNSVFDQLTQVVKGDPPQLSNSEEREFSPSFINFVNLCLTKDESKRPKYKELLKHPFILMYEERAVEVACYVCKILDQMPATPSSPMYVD
PLK4 (human), sequence (O00444 whole entry, looked up): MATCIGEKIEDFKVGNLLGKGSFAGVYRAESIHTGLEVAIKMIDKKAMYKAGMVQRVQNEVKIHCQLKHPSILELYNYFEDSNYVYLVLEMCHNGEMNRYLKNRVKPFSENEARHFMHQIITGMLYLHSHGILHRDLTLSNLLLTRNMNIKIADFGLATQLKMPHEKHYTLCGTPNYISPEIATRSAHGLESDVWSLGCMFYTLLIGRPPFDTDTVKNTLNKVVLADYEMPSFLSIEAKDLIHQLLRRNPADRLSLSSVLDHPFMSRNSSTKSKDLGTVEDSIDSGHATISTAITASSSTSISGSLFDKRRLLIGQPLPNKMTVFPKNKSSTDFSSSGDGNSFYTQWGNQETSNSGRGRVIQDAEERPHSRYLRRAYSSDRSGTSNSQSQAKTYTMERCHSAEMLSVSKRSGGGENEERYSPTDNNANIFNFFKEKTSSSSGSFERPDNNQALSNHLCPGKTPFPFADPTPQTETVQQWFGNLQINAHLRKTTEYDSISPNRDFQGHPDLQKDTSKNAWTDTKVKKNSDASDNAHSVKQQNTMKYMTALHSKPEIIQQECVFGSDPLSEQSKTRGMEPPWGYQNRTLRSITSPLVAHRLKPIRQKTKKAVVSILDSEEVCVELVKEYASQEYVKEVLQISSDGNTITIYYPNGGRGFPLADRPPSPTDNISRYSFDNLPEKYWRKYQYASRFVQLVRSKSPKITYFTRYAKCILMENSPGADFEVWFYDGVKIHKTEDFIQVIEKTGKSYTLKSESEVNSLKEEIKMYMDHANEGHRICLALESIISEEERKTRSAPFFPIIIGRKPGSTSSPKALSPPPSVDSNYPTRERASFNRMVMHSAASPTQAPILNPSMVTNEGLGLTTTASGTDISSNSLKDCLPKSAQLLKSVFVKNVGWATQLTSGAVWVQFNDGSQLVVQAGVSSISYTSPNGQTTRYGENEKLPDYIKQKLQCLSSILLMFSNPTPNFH
WEE1 (human), sequence (P30291 whole entry, looked up): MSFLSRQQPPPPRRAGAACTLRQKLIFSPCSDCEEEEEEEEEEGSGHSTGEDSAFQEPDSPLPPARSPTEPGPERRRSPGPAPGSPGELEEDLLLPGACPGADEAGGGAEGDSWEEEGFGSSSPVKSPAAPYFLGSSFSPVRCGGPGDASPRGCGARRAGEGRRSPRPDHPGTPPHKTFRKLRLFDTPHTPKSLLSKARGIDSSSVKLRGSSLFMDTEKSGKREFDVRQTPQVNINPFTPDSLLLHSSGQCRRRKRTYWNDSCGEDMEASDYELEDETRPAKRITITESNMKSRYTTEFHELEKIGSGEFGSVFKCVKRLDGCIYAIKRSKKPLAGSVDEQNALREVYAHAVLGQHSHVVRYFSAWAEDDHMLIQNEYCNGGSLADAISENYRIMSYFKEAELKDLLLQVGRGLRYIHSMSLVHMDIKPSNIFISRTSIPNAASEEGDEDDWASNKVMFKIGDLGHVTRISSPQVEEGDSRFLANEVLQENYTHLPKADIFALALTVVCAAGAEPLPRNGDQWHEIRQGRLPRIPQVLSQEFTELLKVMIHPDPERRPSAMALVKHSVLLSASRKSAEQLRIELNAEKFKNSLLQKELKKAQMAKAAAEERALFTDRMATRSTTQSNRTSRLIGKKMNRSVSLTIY
TTK (human), sequence (P33981 whole entry, looked up): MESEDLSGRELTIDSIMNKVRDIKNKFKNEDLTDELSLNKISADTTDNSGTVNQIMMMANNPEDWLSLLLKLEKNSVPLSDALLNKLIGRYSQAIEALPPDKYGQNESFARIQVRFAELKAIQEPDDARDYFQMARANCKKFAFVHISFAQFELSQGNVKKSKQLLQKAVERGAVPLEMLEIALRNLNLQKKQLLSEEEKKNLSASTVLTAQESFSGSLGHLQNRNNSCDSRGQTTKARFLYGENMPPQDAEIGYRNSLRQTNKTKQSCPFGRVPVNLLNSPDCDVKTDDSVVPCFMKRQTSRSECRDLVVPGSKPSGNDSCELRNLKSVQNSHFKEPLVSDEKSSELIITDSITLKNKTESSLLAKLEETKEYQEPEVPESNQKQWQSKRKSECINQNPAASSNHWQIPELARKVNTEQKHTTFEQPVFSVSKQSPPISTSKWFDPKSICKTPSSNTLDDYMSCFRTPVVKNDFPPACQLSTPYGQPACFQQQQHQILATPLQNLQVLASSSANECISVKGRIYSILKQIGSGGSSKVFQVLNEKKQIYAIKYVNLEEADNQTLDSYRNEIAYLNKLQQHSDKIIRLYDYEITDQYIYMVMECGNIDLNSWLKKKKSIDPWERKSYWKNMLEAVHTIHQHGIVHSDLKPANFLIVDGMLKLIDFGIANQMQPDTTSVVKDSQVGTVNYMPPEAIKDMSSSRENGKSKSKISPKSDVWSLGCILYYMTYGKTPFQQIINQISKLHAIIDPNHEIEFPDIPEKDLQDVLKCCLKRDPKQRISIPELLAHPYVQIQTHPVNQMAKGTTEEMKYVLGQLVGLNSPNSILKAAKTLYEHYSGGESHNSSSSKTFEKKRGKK
MST4 (human), sequence (Q9P289 whole entry, looked up): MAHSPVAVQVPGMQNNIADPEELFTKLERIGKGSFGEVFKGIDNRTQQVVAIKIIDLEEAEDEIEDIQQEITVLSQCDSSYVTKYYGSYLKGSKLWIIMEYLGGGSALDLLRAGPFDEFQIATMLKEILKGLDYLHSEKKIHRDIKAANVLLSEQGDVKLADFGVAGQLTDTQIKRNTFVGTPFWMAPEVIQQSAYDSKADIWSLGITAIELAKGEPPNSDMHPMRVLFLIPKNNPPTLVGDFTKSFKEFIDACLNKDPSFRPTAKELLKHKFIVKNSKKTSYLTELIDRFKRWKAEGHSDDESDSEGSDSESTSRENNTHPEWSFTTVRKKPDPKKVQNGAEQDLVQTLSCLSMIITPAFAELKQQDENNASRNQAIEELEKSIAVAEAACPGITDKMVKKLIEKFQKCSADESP
MAP2K3 (human), sequence (P46734 whole entry, looked up): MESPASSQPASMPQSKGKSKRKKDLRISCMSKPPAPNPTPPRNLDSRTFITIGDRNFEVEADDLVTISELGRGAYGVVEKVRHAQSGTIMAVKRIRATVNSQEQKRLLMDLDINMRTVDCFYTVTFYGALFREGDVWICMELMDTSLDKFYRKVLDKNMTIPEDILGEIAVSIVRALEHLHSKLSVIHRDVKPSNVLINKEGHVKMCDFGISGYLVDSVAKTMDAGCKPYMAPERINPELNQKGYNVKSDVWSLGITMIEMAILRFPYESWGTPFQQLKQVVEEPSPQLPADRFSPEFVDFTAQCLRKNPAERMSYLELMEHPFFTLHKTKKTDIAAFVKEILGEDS
MOS (human), sequence (P00540 whole entry, looked up): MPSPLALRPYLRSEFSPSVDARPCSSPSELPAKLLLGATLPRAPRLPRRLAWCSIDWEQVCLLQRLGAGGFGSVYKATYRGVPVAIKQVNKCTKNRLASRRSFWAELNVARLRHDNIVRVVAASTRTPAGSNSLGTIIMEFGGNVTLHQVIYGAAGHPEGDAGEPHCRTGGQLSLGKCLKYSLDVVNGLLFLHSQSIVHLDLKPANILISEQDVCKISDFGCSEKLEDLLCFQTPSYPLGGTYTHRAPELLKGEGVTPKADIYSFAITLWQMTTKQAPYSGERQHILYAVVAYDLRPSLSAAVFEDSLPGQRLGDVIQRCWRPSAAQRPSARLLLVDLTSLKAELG

With `Cc1ccc(Nc2nccc(N(C)c3ccc4c(C)n(C)nc4c3)n2)cc1S(N)(=O)=O` the inhibition (MAP2K6 (human); compound 0.02 µM) was 7.1%, the inhibition (MAP2K6 (human); compound 0.2 µM) was 24.5% and the inhibition (MAP2K5 (human); compound 0.02 µM) was -16.9%. The inhibition (MAP2K5 (human); compound 0.2 µM) was 0%, the inhibition (MAP2K4 (human); compound 0.02 µM) was 8.7% and the inhibition (MAP2K4 (human); compound 0.2 µM) was 9.5%. The inhibition (PLK4 (human); compound 0.02 µM) was 8.8%, the inhibition (PLK4 (human); compound 0.2 µM) was 22.3% and the inhibition (MAP3K8 (human); compound 0.02 µM) was -2.6%. For the same molecule, the inhibition (MAP3K8 (human); compound 0.2 µM) was -1.1%, the inhibition (BMPR1A (human); compound 0.02 µM) was 0.4% and the inhibition (BMPR1A (human); compound 0.2 µM) was 6.5%. For the same molecule, the inhibition (MOS (human); compound 0.02 µM) was -6.8%, the inhibition (MOS (human); compound 0.2 µM) was 5% and the inhibition (WEE1 (human); compound 0.02 µM) was -3.7%. For the same molecule, the inhibition (WEE1 (human); compound 0.2 µM) was -3.5%, the inhibition (MAP3K5 (human); compound 0.02 µM) was 1.9% and the inhibition (MAP3K5 (human); compound 0.2 µM) was 8.3%. It also gave an inhibition (MAP3K10 (human); compound 0.02 µM) of 8.1%, an inhibition (MAP3K10 (human); compound 0.2 µM) of 17.3% and an inhibition (MAP2K2 (human); compound 0.02 µM) of -7.4%. It also gave an inhibition (MAP2K2 (human); compound 0.2 µM) of -4%, an inhibition (TTK (human); compound 0.02 µM) of -8.3% and an inhibition (TTK (human); compound 0.2 µM) of 2.4%. The inhibition (MAP3K1 (human); compound 0.02 µM) was -1%, the inhibition (MAP3K1 (human); compound 0.2 µM) was 3.7% and the inhibition (MAP2K1 (human); compound 0.02 µM) was -3.2%. For the same molecule, the inhibition (MAP2K1 (human); compound 0.2 µM) was -5.7%, the inhibition (MAP2K7 (human); compound 0.02 µM) was 3.2% and the inhibition (MAP2K7 (human); compound 0.2 µM) was 0.2%. The inhibition (MAP3K12 (human); compound 0.02 µM) was 8.5%, the inhibition (MAP3K12 (human); compound 0.2 µM) was 25% and the inhibition (STK11 (human); compound 0.02 µM) was 0.6%. It also gave an inhibition (MAP3K2 (human); compound 0.02 µM) of -4%, an inhibition (MAP3K2 (human); compound 0.2 µM) of 12% and an inhibition (MAP3K3 (human); compound 0.02 µM) of 4.7%. It also gave an inhibition (MAP3K3 (human); compound 0.2 µM) of 39.5%, an inhibition (MAP3K9 (human); compound 0.02 µM) of 28.1% and an inhibition (MAP3K9 (human); compound 0.2 µM) of 74.8%. For the same molecule, the inhibition (MAP2K3 (human); compound 0.02 µM) was -3.4%, the inhibition (MAP2K3 (human); compound 0.2 µM) was 5.5% and the inhibition (RAF1 (human); compound 0.02 µM) was 22.1%. It also gave an inhibition (RAF1 (human); compound 0.2 µM) of 77.8%, an inhibition (MAP3K4 (human); compound 0.02 µM) of -1.5% and an inhibition (MAP3K4 (human); compound 0.2 µM) of 3%. It also gave an inhibition (MAPK12 (human); compound 0.02 µM) of -6.3%, an inhibition (MAPK12 (human); compound 0.2 µM) of -2.7% and an inhibition (PRKACA (human); compound 0.02 µM) of -6.3%. The inhibition (PRKACA (human); compound 0.2 µM) was -5%, the inhibition (MST4 (human); compound 0.02 µM) was -9.1% and the inhibition (MST4 (human); compound 0.2 µM) was -4%. The inhibition (CSNK1G1 (human); compound 0.02 µM) was -0.9%, the inhibition (CSNK1G1 (human); compound 0.2 µM) was -1% and the inhibition (DYRK3 (human); compound 0.02 µM) was -2.2%. It also gave an inhibition (DYRK3 (human); compound 0.2 µM) of -1.4%, an inhibition (SLK (human); compound 0.02 µM) of 9% and an inhibition (SLK (human); compound 0.2 µM) of 12.3%. For the same molecule, the inhibition (IRAK4 (human); compound 0.02 µM) was -4.3%, the inhibition (IRAK4 (human); compound 0.2 µM) was -3.9% and the inhibition (CDC42BPA (human); compound 0.02 µM) was 13.3%. The inhibition (CDC42BPA (human); compound 0.2 µM) was 11%, the inhibition (NTRK2 (human); compound 0.02 µM) was 5.5% and the inhibition (NTRK2 (human); compound 0.2 µM) was 14.7%.
`CCN(CC)CCNC(=O)c1c(C)[nH]c(/C=C2\C(=O)Nc3ccc(F)cc32)c1C` gave an inhibition (MAP2K6 (human); compound 0.2 µM) of 21.1%, an inhibition (MAP2K6 (human); compound 4.0 µM) of 87.3% and an inhibition (MAP2K5 (human); compound 0.2 µM) of 32.7%. For the same molecule, the inhibition (MAP2K5 (human); compound 4.0 µM) was 91.8%, the inhibition (MAP2K4 (human); compound 0.2 µM) was 2.8% and the inhibition (MAP2K4 (human); compound 4.0 µM) was 51.9%. It also gave an inhibition (MAP3K11 (human); compound 0.2 µM) of 30.9%, an inhibition (MAP3K11 (human); compound 4.0 µM) of 89.4% and an inhibition (LIMK1 (human); compound 0.2 µM) of -0.7%. The inhibition (LIMK1 (human); compound 4.0 µM) was 31.7%, the inhibition (PLK4 (human); compound 0.2 µM) was 30.3% and the inhibition (PLK4 (human); compound 4.0 µM) was 82.7%. The inhibition (MAP3K8 (human); compound 0.2 µM) was -5.3%, the inhibition (MAP3K8 (human); compound 4.0 µM) was -9.2% and the inhibition (BMPR1A (human); compound 0.2 µM) was -3.8%. For the same molecule, the inhibition (BMPR1A (human); compound 4.0 µM) was -7.3%, the inhibition (MOS (human); compound 0.2 µM) was 2.5% and the inhibition (MOS (human); compound 4.0 µM) was 29.9%. It also gave an inhibition (WEE1 (human); compound 0.2 µM) of 10%, an inhibition (WEE1 (human); compound 4.0 µM) of 65.3% and an inhibition (MAP3K5 (human); compound 0.2 µM) of -0.6%. For the same molecule, the inhibition (MAP3K5 (human); compound 4.0 µM) was 60.6%, the inhibition (MAP3K10 (human); compound 0.2 µM) was 1.2% and the inhibition (MAP3K10 (human); compound 4.0 µM) was 11%. The inhibition (BRAF (human); compound 0.2 µM) was -51%, the inhibition (BRAF (human); compound 4.0 µM) was -60.8% and the inhibition (MAP2K2 (human); compound 0.2 µM) was 70.1%. For the same molecule, the inhibition (MAP2K2 (human); compound 4.0 µM) was 99%, the inhibition (TTK (human); compound 0.2 µM) was 11.5% and the inhibition (TTK (human); compound 4.0 µM) was 89.7%. The inhibition (MAP3K1 (human); compound 0.2 µM) was 15.9%, the inhibition (MAP3K1 (human); compound 4.0 µM) was -29.8% and the inhibition (MAP2K1 (human); compound 0.2 µM) was 73.2%. The inhibition (MAP2K7 (human); compound 0.2 µM) was 2.2%, the inhibition (MAP2K7 (human); compound 4.0 µM) was -3.6% and the inhibition (MAP3K12 (human); compound 0.2 µM) was 59.5%. It also gave an inhibition (MAP3K12 (human); compound 4.0 µM) of 96.5%, an inhibition (STK11 (human); compound 0.2 µM) of 4.3% and an inhibition (STK11 (human); compound 4.0 µM) of 28.1%. It also gave an inhibition (MAP3K2 (human); compound 0.2 µM) of 52.1%, an inhibition (MAP3K2 (human); compound 4.0 µM) of 95.7% and an inhibition (MAP3K3 (human); compound 0.2 µM) of 56.3%. The inhibition (MAP3K3 (human); compound 4.0 µM) was 95.5%, the inhibition (MAP2K3 (human); compound 0.2 µM) was -2% and the inhibition (RAF1 (human); compound 0.2 µM) was -61.4%. The inhibition (RAF1 (human); compound 4.0 µM) was -88.1%, the inhibition (MAP3K4 (human); compound 0.2 µM) was -4.9% and the inhibition (MAP3K4 (human); compound 4.0 µM) was 17.5%. The inhibition (MAPK12 (human); compound 0.2 µM) was -4.2%, the inhibition (MAPK12 (human); compound 4.0 µM) was -6.2% and the inhibition (PRKACA (human); compound 0.2 µM) was 0.6%. The inhibition (PRKACA (human); compound 4.0 µM) was 49%, the inhibition (MST4 (human); compound 0.2 µM) was 4% and the inhibition (MST4 (human); compound 4.0 µM) was 63.2%. For the same molecule, the inhibition (DYRK3 (human); compound 0.2 µM) was 24.4%, the inhibition (DYRK3 (human); compound 4.0 µM) was 81.9% and the inhibition (SLK (human); compound 0.2 µM) was 78.3%. It also gave an inhibition (IRAK4 (human); compound 0.2 µM) of 35.6%, an inhibition (IRAK4 (human); compound 4.0 µM) of 90.4% and an inhibition (CDC42BPA (human); compound 0.2 µM) of 5.5%. It also gave an inhibition (CDC42BPA (human); compound 4.0 µM) of -26.5%, an inhibition (NTRK2 (human); compound 0.2 µM) of 85.7% and an inhibition (NTRK2 (human); compound 4.0 µM) of 101%.
